Measured values taken from patent US20070224668A1, “Process for producing 4-vinylguaiacol by biodecaroxylation of ferulic acid” (priority 2006, published 2007).

Tested on: wild type B. pumilus
Assay: Activity of resting cell in aqueous organic two-phase system (biotransformation of FA to VG)
Settings: two-phase bioconversion, B. pumilus whole cells
Method: The cells were resuspended in 1 ml of 0.1 M phosphate buffer to a concentration (OD600=5) and mixed with an equal volume of organic solvent in flasks. Biotransformation was started at an initial FA concentration of 36 mM. The experiments were performed under the same conditions as in the mono-phase biotransformation process (Example 1).

Structure (SMILES) | Toxicity of solvent to the cells
CCO [Ethanol] | toxic to the cells
CCOC(C)=O [Ethyl acetate] | toxic to the cells
